The text below walks through data of patent publication US9296720B2, “Carboxamide-substituted heteroaryl-pyrazoles and the use thereof” (AiCuris GmbH & Co. KG, priority 2011, dated 2016).

Common to all, as to format: cell-based
The subject of experiment [1] is HIV-1NL4-3 K103N-Y181C. The experiment is described as follows: Luminescence reduction assay, MT4 cells infected with HIV-1NL4-3 luciferase reporter virus, RT mutant K103N-Y181C. An excerpt:
(§1) For this assay, HIV-1NL4-3 reporter viruses are used, which carry the luciferase164 gene (lu164) instead of the nef gene. The viruses are generated by transfection of 293T cells with the corresponding proviral pNL4-3 plasmid (Lipofectamine Reagent, Invitrogen, Karlsruhe, Germany). Starting from the proviral plasmid-DNA, viruses with defined resistance mutations in the reverse transcriptase gene are produced with the “QuikChange II XL Site-Directed Mutagenesis Kit” (Stratagene, Cedar Creek, Tex., USA). Among other things, the following mutations are generated: A98G, A98G-K103N-V108I, A98S, F227C, F227L, G190A, G190S, K101E, K101Q-K103N, K103N, K103N-F227L, K103N-G190A, K103N-G190S, K103N-M230L, K103N-N348I, K103N-P225H, K103N-V108I, K103N-V108I-P225H, K103N-V179F-Y181C, K103N-Y181C, K103N-Y181C-G190A, L100I, L100I-K103N, L100I-K103N-V179I-Y181C, L100I-K103N-Y181C, L234I, N348I, P225H, P236L, V106A, V106A-E138K, V106A-F227C, V106A-F227L, V106I, V106I-Y188L, V106M, V108I, V179F-Y181C, V179I, V179I-Y181C, Y181C, Y181C-G190A, Y181C-M230L, Y181I, Y188L. MT4 cells infected with these reporter viruses (NIH AIDS Research and Reference Reagent Program) secrete luciferase into the medium, which makes possible the luminometric quantification of the virus replication.
(§2) For the batch of a 96-well MTP, 3 million MT4 cells are pelletized, suspended in 1 ml of RPMI 1640 medium without phenol red (Invitrogen, Karlsruhe, Germany)/10% FCS/2 mmol of L-glutamine/1% Pen/Strep (Invitrogen, Karlsruhe, Germany), and incubated together with a suitable amount of the corresponding HIV-1NL4-3 reporter virus for 2 hours at 37° C. (pellet infection). Non-adsorbed viruses are then washed out with PBS, the infected cells are pelletized again, and suspended in 8 ml of RPM 11640 medium without phenol red/2% or 10% FCS/2 mmol of L-glutamine/1% Pen/Strep. Therefrom, 80 μl per well is pipetted into a white 96-well MTP in 20 μl of test substance in a suitable dilution. In order to avoid boundary effects, the edge wells of the MTP are not used for substance dilutions. The second vertical row of the MTP contains only infected cells (virus control), and the eleventh vertical row contains only non-infected cells (cell control) in each case in RPMI 1640 medium without phenol red/2% or 10% FCS/2 mmol of L-glutamine/1% Pen/Strep. The other wells of the MTP contain the compounds according to the invention in different concentrations starting from the third vertical row, from which dilution of the test substances is carried out 3^7 times in three steps up to the tenth vertical row. The test substances are dissolved in DMSO, whereby the DMSO final concentration in the test batch is ultimately 1%. The test batches are incubated for 5 days at 37° C./5% CO2, and are luminometrically evaluated after the addition of 15 μl of Lu164-buffer (65 mmol of NaCl, 300 mmol of MES, pH 5.8, 5 mmol of glutathione and 1:200 coelenterazine (5 mg/ml in 30 μM of glutathione/DMSO) (P.J.K. GmbH, Kleinblittersdorf, Germany)). In the virus control, the resulting values are in the range of 1 million RLUs (relative light units), and in the cell control, the resulting values are 300 to 400 RLUs. The EC50 values of the test substances are determined as the concentration of the treated infected cells, in which the virus replication measured in RLUs is 50% of the untreated infected cells.
(In general: Reporter assays use an easily measured gene product as a stand-in for the process of interest.)

Experiment [2] concerns HIV-1NL4-3 Wild Type. The experiment is described as follows: Luminescence reduction assay, MT4 cells infected with HIV-1NL4-3 luciferase reporter virus, wild type. The conditions noted are these: 2% FCS.
Excerpt: as §1, §2

Experiment [3] has as its system HIV-1LAI Wild Type. The experiment is described as follows: AlamarBlue viability assay, HIV-1LAI-infected MT4 cells. As to conditions: 10% FCS. As for the experimental part:
For the batch of a 96-well MTP, 3 million PBLs are pelletized, suspended in 1 ml of RPMI 1640 medium/10% FCS/2 mmol of L-glutamine/1% Pen/Strep, and incubated together with a suitable amount of HIV-1LA1 (NIH AIDS Research & Reference Reagent Program, Germantown, USA) for 2 hours at 37° C. (pellet infection). Non-adsorbed viruses are then washed out with PBS, the infected cells are pelletized again, and suspended in 18 ml of RPMI 1640 medium/10% FCS/2 mmol of L-glutamine/1% Pen/Strep/interleukin-2 (40 U/ml). Therefrom, 180 μl per well is pipetted into a white 96-well MTP in 20 μl of test substance in a suitable dilution. As an alternative, after preparation of the substance dilutions, the HIV is added by pipetting in the MTP together with the cells and is no longer washed out (supernatant infection). In order to avoid boundary effects, the edge wells of the MTP are not used for substance dilutions. The second vertical row of the MTP contains only infected cells (virus control), and the eleventh vertical row contains only non-infected cells (cell control) in each case in RPMI 1640 medium/10% FCS/2 mmol of L-glutamine/1% Pen/Strep/interleukin-2 (40 U/ml). The other wells of the MTP contain the compounds according to the invention in different concentrations starting from the third vertical row, from which dilution of the test substances is carried out 3^7 times in three steps up to the tenth vertical row. The test substances are dissolved in DMSO, whereby the DMSO final concentration in the test batch is ultimately 1%. The test batches are incubated at 37° C./5% CO2. After 5 and 7 days, in each case 50 μl of cell-free supernatant is drawn off from each well in order to determine the amount of p24 contained by means of p24 ELISA (HIV-1 p24^CA Antigen Capture Assay Kit, NCI-Frederick Cancer Research and Development Center, Frederick, USA). From the resulting values of the photometric analysis (450/620 nm), the EC50 values of the test substances are determined as the concentration of the treated infected cells, in which the amount of p24 is 50% of the untreated infected cells.
As an alternative, MT4 cells are used for testing test substances instead of PBLs. HIV-1LA1-infected MT4 cells (MOI 0.01, supernatant infection) are incubated according to the above-described pattern in RPMI 1640 medium with 2% or 10% FCS/2 mmol of L-glutamine/1% Pen/Strep in the presence of test substances for 5 days at 37° C./5% CO2 (20 μl of substance dilution and 80 μl of cells/virus per well). Then, 10 μl of AlamarBlue (Invitrogen, Karlsruhe, Germany) is added to each well, and MTPs are incubated for 3 hours at 37° C., before the fluorimetric analysis is done (544/590 nm). The resulting values are approximately 30,000 in the case of untreated, non-infected cells, and approximately 6,000 in the case of untreated infected cells. In the low concentration range, the EC50 values of the test substances are determined as the concentration of the treated infected cells, in which the fluorescence is 50% of the untreated non-infected cells (in each case relative to the values of the untreated infected cells). In addition, in the high concentration range, the CC50 values of the test substances are determined as the concentration of the treated infected cells, in which the fluorescence is 50% of the untreated, non-infected cells (in each case relative to the values of the untreated infected cells).
A general note: The colour change of resazurin is a common sign of viable cells or microbes.

Where [4] appears, read: Human immunodeficiency virus 1, MT4, read-out: EC50 (μM) MT4 Cells HIV-1NL4-3 K103N-Y181C 2% FCS, MT4 cells, HIV-1NL4-3 K103N-Y181C, 2% FCS.
Setting [5] is: Human immunodeficiency virus 1, MT4, MT4 cells.

Like-named read-outs stand apart in the source and are kept apart here.

Take `O=C(c1cc(-c2cc(F)cc(OCC(F)(F)F)c2)n(-c2cccnc2)n1)N1CC[S+]([O-])C1` (racemic) [Example 73, {5-[3-Fluoro-5-(2,2,2-trifluoroethoxy)phenyl]-1-(pyridin-3-yl)-1H-pyrazol-3-yl}(1-oxido-1,3-thiazolidin-3-yl)methanone]: the concentration for a half-maximal effect (EC50) (as a rule, the concentration needed to bring the measured effect to its halfway point) was 0.951 µM in experiment [1] (setting [4]), 0.018 µM in experiment [2] (setting [5]) and 0.243 µM in experiment [3] (setting [5]).
Take `O=C1CN(C(=O)c2cc(-c3cncc(Cl)c3)n(-c3ccc(F)c(Cl)c3)n2)CN1` [Example 100, 1-{[1-(3-Chloro-4-fluorophenyl)-5-(5-chloropyridin-3-yl)-1H-pyrazol-3-yl]carbonyl}imidazolidin-4-one]: the values for the concentration giving a half-maximal response (EC50) in experiment [1] (setting [4]), in experiment [2] (setting [5]) and in experiment [3] (setting [5]) were 0.009 µM, 0.005 µM and 0.01 µM, respectively.
On the same counts, the results for `O=C1CN(C(=O)c2cc(-c3cc(F)cc(OC(F)F)c3)n(-c3ccnc(Cl)c3)n2)CCN1` [Example 69, 4-({1-(2-Chloropyridin-4-yl)-5-[3-(difluoromethoxy)-5-fluorophenyl]-1H-pyrazol-3-yl}carbonyl)piperazin-2-one] are 1.14 µM, 0.32 µM and 1.98 µM.
The corresponding values for `O=C1CN(C(=O)c2cc(-c3cc(F)cc(Cl)c3)n(-c3cncc(Cl)c3)n2)CN1` [Example 9, 1-{[5-(3-Chloro-5-fluorophenyl)-1-(5-chloropyridin-3-yl)-1H-pyrazol-3-yl]carbonyl}imidazolidin-4-one] are 0.32 µM, 0.035 µM and 0.149 µM.
Turning to `O=C(c1cc(-c2cc(Br)cc(OC(F)(F)F)c2)n(-c2ccc(Cl)nc2)n1)N1CCSC1` [Example 36, {5-[3-Bromo-5-(trifluoromethoxy)phenyl]-1-(6-chloropyridin-3-yl)-1H-pyrazol-3-yl}(1,3-thiazolidin-3-yl)methanone], the results for the EC50 in experiment [1] (setting [4]), in experiment [2] (setting [5]) and in experiment [3] (setting [5]) were 0.08 µM, 0.149 µM and 2.37 µM, respectively.
The corresponding values for `O=C1CN(C(=O)c2cc(-c3cnc(F)c(Cl)c3)n(-c3ccc(F)c(Cl)c3)n2)CN1` [Example 111, 1-{[1-(3-Chloro-4-fluorophenyl)-5-(5-chloro-6-fluoropyridin-3-yl)-1H-pyrazol-3-yl]carbonyl}imidazolidin-4-one] are 0.173 µM, 0.03 µM and 0.024 µM.
`O=C1CN(C(=O)c2cc(-c3cc(F)cc(OCC(F)(F)F)c3)n(-c3cccnc3)n2)CCN1` [Example 71, 4-({5-[3-Fluoro-5-(2,2,2-trifluoroethoxy)phenyl]-1-(pyridin-3-yl)-1H-pyrazol-3-yl}carbonyl)piperazin-2-one]: the EC50 in experiment [1] (setting [4]) is over 3.3 µM; in experiment [2] (setting [5]), 0.013 µM; in experiment [3] (setting [5]), 0.246 µM.
As for `O=C(c1cc(-c2cc(Br)cc(OC(F)(F)F)c2)n(-c2cccnc2)n1)N1CC[S+]([O-])C1` (racemic) [Example 31, {5-[3-Bromo-5-(trifluoromethoxy)phenyl]-1-(pyridin-3-yl)-1H-pyrazol-3-yl}(1-oxido-1,3-thiazolidin-3-yl)methanone], the EC50 in experiment [1] (read-out: EC50 (μM) MT4 Cells HIV-1NL4-3 K103N-Y181C 2% FCS, MT4 cells, HIV-1NL4-3 K103N-Y181C, 2% FCS) amounted to 0.045 µM; in experiment [2] (MT4 cells) it was 0.017 µM; in experiment [3] (MT4 cells) it was 0.18 µM.
As for `O=C1CN(C(=O)c2cc(-c3cc(Br)cc(OC(F)(F)F)c3)n(-c3ccc(Cl)nc3)n2)CN1` [Example 34, 1-({5-[3-Bromo-5-(trifluoromethoxy)phenyl]-1-(6-chloropyridin-3-yl)-1H-pyrazol-3-yl}carbonyl)imidazolidin-4-one], the 50% effective concentration (EC50) in experiment [1] (setting [4]) is 0.003 µM; in experiment [2] (setting [5]), 0.01 µM; in experiment [3] (setting [5]), 0.098 µM.
In the case of `O=C1CN(C(=O)c2cc(-c3cc(Br)cc(OC(F)(F)F)c3)n(-c3cccnc3)n2)CCN1` [Example 29, 4-({5-[3-Bromo-5-(trifluoromethoxy)phenyl]-1-(pyridin-3-yl)-1H-pyrazol-3-yl}carbonyl)piperazin-2-one], the EC50 in experiment [1] (setting [4]) is 0.032 µM; in experiment [2] (setting [5]) it was 0.012 µM; in experiment [3] (setting [5]), 0.097 µM.
The corresponding values for `O=C1CN(C(=O)c2cc(-c3cncc(C(F)(F)F)c3)n(-c3cccc(Cl)c3)n2)CN1` [Example 108, 1-({1-(3-Chlorophenyl)-5-[5-(trifluoromethyl)pyridin-3-yl]-1H-pyrazol-3-yl}carbonyl)imidazolidin-4-one] are 0.093 µM, 0.052 µM and 0.036 µM.
The corresponding values for `O=C1CN(C(=O)c2cc(-c3cc(Cl)cc(OC(F)(F)F)c3)n(-c3cccnc3)n2)CN1` [Example 76, 1-({5-[3-Chloro-5-(trifluoromethoxy)phenyl]-1-(pyridin-3-yl)-1H-pyrazol-3-yl}carbonyl)imidazolidin-4-one] are 0.019 µM, 0.014 µM and 0.207 µM.
